Measurements as given in patent publication US20190192699A1, “NUCLEAR IMAGING AND RADIOTHERAPEUTICS AGENTS TARGETING CARBONIC ANHYDRASE IX AND USES THEREOF” (THE JOHNS HOPKINS UNIVERSITY, priority 2016, published 2019).
Where “and” joins values, the source holds several entries; their conditions need not be identical. Identical values can stand only once.

Test system: SK-RC-52 xenografts
Assay: Biodistribution of [111In]XYIMSR-01 and [177Lu]XYIMSR-01
Type: in vivo, mice
Experimental: Cell Lines and Mouse Models. Animal experiments were performed in accordance with protocols approved by the Johns Hopkins Animal Care and Use Committee (ACUC). Six-week-old female NOD/SCID mice were purchased from the Animal Resource Core of the Sidney Kimmel Comprehensive Cancer Center of Johns Hopkins and were subcutaneously injected in the lower left flank or upper right flank with 1×10^6 SK-RC-52 cells in RPMI 1640 GlutaMAX™ media (Life Technologies, Frederick, Md.) supplemented with 1% fetal bovine serum (FBS). Mice were monitored for tumor size and used for SPECT/CT imaging when the size of the tumor reached 100 mm^3.
Biodistribution of [^111In]XYIMSR-01 and [^177Lu]XYIMSR-01. Mice bearing SK-RC-52 xenografts at lower left flank were injected intravenously with 740 kBq (20 μCi) of [^111In]XYIMSR-01, or [^177Lu]XYIMSR-01 in 200 μL of PBS. For competitive blocking, same tumor bearing mice were injected with 740 kBq (20 μCi) of [^111In]XYIMSR-01 and 200 nmole of 1 in 200 μL of PBS. At 1 h, 4 h, 8 h, 24 h and 48 h post-injection, mice were sacrificed by cervical dislocation and the blood was immediately collected by cardiac puncture. Heart, lungs, pancreas, spleen, fat, brain, muscle, small intestines, liver, stomach, kidney, urinary bladder, and tumor were collected. Each organ was weighed and the tissue radioactivity was measured with an automated gamma counter (1282 Compugamma CS, Pharmacia/LKBNuclear, Inc., Mt. Waverly, Vic. Australia). The percentage of injected dose per gram of tissue (% ID/g) was calculated by comparison with samples of a standard dilution of the initial dose. All measurements were corrected for radioactive decay.
Data were expressed as mean±standard deviation (SD). Prism software (GraphPAD, San Diego, Calif.) was used to determine statistical significance. Statistical significance was calculated using a paired t test. P-values […] were considered significant.

[1] = 24 hr + Block (200 nmole of 1 co-injected)

CC(CCC(=O)N[C@@H](CC(=O)N[C@@H](CC(=O)N[C@@H](CCCCn1cc(CCCC(=O)Nc2nnc(S(N)(=O)=O)s2)nn1)C(=O)NCCOCCOCCNC(=O)CN1CCN(CC(=O)[O-])CCN(CC(=O)[O-])CCN(CC(=O)[O-])CC1)C(=O)O)C(=O)O)(c1ccc(O)cc1)c1ccc(O)cc1.[111In+3] [[^111In]XYIMSR-01]
Biodistribution: Bladder (1 hr post-injection): 4.90 ± 4.96 % ID/g
Biodistribution: Blood (1 hr post-injection): 1.34 ± 0.17 % ID/g
Biodistribution: Brain (1 hr post-injection): 1.23 ± 1.10 % ID/g
Biodistribution: Fat (1 hr post-injection): 1.03 ± 0.24 % ID/g
Biodistribution: Heart (1 hr post-injection): 5.98 ± 0.53 % ID/g
Biodistribution: Kidney (1 hr post-injection): 71.26 ± 8.74 % ID/g
Biodistribution: Liver (1 hr post-injection): 8.36 ± 0.73 % ID/g
Biodistribution: Lung (1 hr post-injection): 45.85 ± 19.89 % ID/g
Biodistribution: Muscle (1 hr post-injection): 2.34 ± 2.19 % ID/g
Biodistribution: Pancreas (1 hr post-injection): 3.81 ± 0.72 % ID/g
Biodistribution: Small intestine (1 hr post-injection): 9.37 ± 1.26 % ID/g
Biodistribution: Spleen (1 hr post-injection): 0.52 ± 0.04 % ID/g
Biodistribution: Stomach (1 hr post-injection): 16.71 ± 2.46 % ID/g
Biodistribution: Tumor (1 hr post-injection): 26 % ID/g and 26.01 ± 5.74 % ID/g
Tumor/Blood ratio (1 hr post-injection): 19.7 and 19.7 ± 4.8
Tumor/Kidney ratio (1 hr post-injection): 0.36 ± 0.06
Tumor/Muscle ratio (1 hr post-injection): 12.7 and 12.7 ± 5.8
Biodistribution: Bladder (4 hr post-injection): 2.68 ± 1.89 % ID/g
Biodistribution: Blood (4 hr post-injection): 0.65 ± 0.06 % ID/g
Biodistribution: Brain (4 hr post-injection): 0.45 ± 0.06 % ID/g
Biodistribution: Fat (4 hr post-injection): 0.42 ± 0.22 % ID/g
Biodistribution: Heart (4 hr post-injection): 2.91 ± 0.45 % ID/g
Biodistribution: Kidney (4 hr post-injection): 41.52 ± 6.07 % ID/g
Biodistribution: Liver (4 hr post-injection): 4.00 ± 0.8 % ID/g
Biodistribution: Lung (4 hr post-injection): 17.85 ± 3.55 % ID/g
Biodistribution: Muscle (4 hr post-injection): 1.01 ± 0.28 % ID/g
Biodistribution: Pancreas (4 hr post-injection): 1.54 ± 0.40 % ID/g
Biodistribution: Small intestine (4 hr post-injection): 4.27 ± 0.69 % ID/g
Biodistribution: Spleen (4 hr post-injection): 0.51 ± 0.08 % ID/g
Biodistribution: Stomach (4 hr post-injection): 7.91 ± 1.28 % ID/g
Biodistribution: Tumor (4 hr post-injection): 20.8 % ID/g and 20.83 ± 6.25 % ID/g
Tumor/Blood ratio (4 hr post-injection): 31.9 ± 9.4
Tumor/Kidney ratio (4 hr post-injection): 0.50 ± 0.15
Tumor/Muscle ratio (4 hr post-injection): 21.4 ± 7.2
Biodistribution: Bladder (8 hr post-injection): 2.28 ± 0.51 % ID/g
Biodistribution: Blood (8 hr post-injection): 0.48 ± 0.02 % ID/g
Biodistribution: Brain (8 hr post-injection): 0.59 ± 0.09 % ID/g
Biodistribution: Fat (8 hr post-injection): 0.45 ± 0.08 % ID/g
Biodistribution: Heart (8 hr post-injection): 2.61 ± 0.35 % ID/g
Biodistribution: Kidney (8 hr post-injection): 28.79 ± 21.35 % ID/g
Biodistribution: Liver (8 hr post-injection): 3.65 ± 0.65 % ID/g
Biodistribution: Lung (8 hr post-injection): 17.39 ± 8.99 % ID/g
Biodistribution: Muscle (8 hr post-injection): 1.09 ± 0.15 % ID/g
Biodistribution: Pancreas (8 hr post-injection): 1.61 ± 0.28 % ID/g
Biodistribution: Small intestine (8 hr post-injection): 4.31 ± 0.67 % ID/g
Biodistribution: Spleen (8 hr post-injection): 0.64 ± 0.07 % ID/g
Biodistribution: Stomach (8 hr post-injection): 8.74 ± 1.26 % ID/g
Biodistribution: Tumor (8 hr post-injection): 34.0 % ID/g and 34.00 ± 15.16 % ID/g
Tumor/Blood ratio (8 hr post-injection): 77.0 ± 32.5
Tumor/Kidney ratio (8 hr post-injection): 3.1 ± 3.1
Tumor/Muscle ratio (8 hr post-injection): 34.2 ± 16.0
Tumor/liver ratio (24 h): 8.5
uptake to tumors with simultaneously injected non-radioactive competitor 1 (24 h and 48 h post injection): ~1%
tumor/organ ratio, all other organs (24 h post-injection): ≥ 10
Biodistribution: Bladder [1]: 0.20 ± 0.07 % ID/g
Biodistribution: Blood [1]: 0.03 ± 0.00 % ID/g
Biodistribution: Brain [1]: 0.03 ± 0.00 % ID/g
Biodistribution: Fat [1]: 0.02 ± 0.01 % ID/g
Biodistribution: Heart [1]: 0.04 ± 0.01 % ID/g
Biodistribution: Kidney [1]: 0.68 ± 0.14 % ID/g
Biodistribution: Liver [1]: 0.10 ± 0.02 % ID/g
